This passage reports IC50 and viability, T/C results from PubChem BioAssay AID1919015 (Molecular Pharmacology Branch, DTP, NCI, 2023).

SMILES strings stand for the structures. “And” between values parts separate entries of the source, which are not always exact repeats. Equal entries are not always repeated.

This test relates to OVCAR-5 complex spheroids with HUVEC/MSC, viability, % test/control. Description: Anticancer human tumor OVCAR-5 cell line growth inhibition [AhR].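 On all read-outs here: spheroids exposed to compounds for 7 days.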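 On viability, T/C: 100% = DMSO vehicle control wells.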 As to conditions: for viability, T/C: stronger effect = lower value. In outline:
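Spheroids combined tumor cells with HUVEC endothelial cells and human MSCs as stroma. AhR antagonists were paired with standard or investigational drugs, each dosed in half-log steps down from near clinical Cmax, or from 10 microM where Cmax was unknown.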

Where [1] appears, read: curve of first compound, second compound 0.1 µM.
Setting [2] is: curve of first compound, second compound 0.316 µM.
Setting [3] is: curve of first compound, second compound 1 µM.
The mark [4] stands for this setting: curve of first compound, second compound 3.16 µM.
The mark [5] stands for this setting: curve of first compound, second compound 10 µM.
The mark [6] stands for this setting: second compound 0.1 µM, first compound 0.00949 µM.
The mark [7] stands for this setting: second compound 0.1 µM, first compound 0.03 µM.
Setting [8] is: second compound 0.1 µM, first compound 0.0949 µM.
The mark [9] stands for this setting: second compound 0.1 µM, first compound 0.3 µM.
The mark [10] stands for this setting: second compound 0.316 µM, first compound 0.00949 µM.
The mark [11] stands for this setting: second compound 0.316 µM, first compound 0.03 µM.
The mark [12] stands for this setting: second compound 0.316 µM, first compound 0.0949 µM.
Where [13] appears, read: second compound 0.316 µM, first compound 0.3 µM.
Setting [14] is: second compound 1 µM, first compound 0.00949 µM.
Setting [15] is: second compound 1 µM, first compound 0.03 µM.
The mark [16] stands for this setting: second compound 1 µM, first compound 0.0949 µM.
Setting [17] is: second compound 1 µM, first compound 0.3 µM.
Where [18] appears, read: second compound 3.16 µM, first compound 0.00949 µM.
[19] abbreviates: second compound 3.16 µM, first compound 0.03 µM.
Where [20] appears, read: second compound 3.16 µM, first compound 0.0949 µM.
The mark [21] stands for this setting: second compound 3.16 µM, first compound 0.3 µM.
Where [22] appears, read: second compound 10 µM, first compound 0.00949 µM.
The mark [23] stands for this setting: second compound 10 µM, first compound 0.03 µM.
Setting [24] is: second compound 10 µM, first compound 0.0949 µM.
[25] abbreviates: second compound 10 µM, first compound 0.3 µM.

`Nc1ncn(C2CC(O)C(CO)S2)c(=O)n1` (stereo not given) + CC(CO)NC(=O)c1cc(-c2ccc(Cl)cc2)nn(-c2cnn(C)c2)c1=O: the IC50 is, setting by setting: under setting [1], greater than 0.3 µM; under setting [2], greater than 0.3 µM; under setting [3], greater than 0.3 µM; under setting [4], greater than 0.3 µM; under setting [5], greater than 0.3 µM. For the same compound, the viability, T/C runs as follows: (second compound 0.1 µM, first compound 0.000949 µM) 104%; (second compound 0.1 µM, first compound 0.003 µM) 110%; under setting [6], 106%; under setting [7], 110%; under setting [8], 103%; under setting [9], 85.3%. The viability, T/C runs as follows: (second compound 0.316 µM, first compound 0.000949 µM) 103%; (second compound 0.316 µM, first compound 0.003 µM) 109%; under setting [10], 109%; under setting [11], 105%; under setting [12], 101%; under setting [13], 84.6%. For the same compound, the viability, T/C was 109% (second compound 1 µM, first compound 0.000949 µM); 112% (second compound 1 µM, first compound 0.003 µM); 113% under setting [14]; 109% under setting [15]; 106% under setting [16]; 91.9% under setting [17]. Besides, the viability, T/C is 101% (second compound 3.16 µM, first compound 0.000949 µM); 104% (second compound 3.16 µM, first compound 0.003 µM); 102% under setting [18]; 104% under setting [19]; 93.3% under setting [20]; 83.5% under setting [21]. The viability, T/C is, setting by setting: (second compound 10 µM, first compound 0.000949 µM) 99.7%; (second compound 10 µM, first compound 0.003 µM) 101%; under setting [22], 98.9%; under setting [23], 98.4%; under setting [24], 93%; under setting [25], 86.2%.
In the case of `Cc1cncc(-c2nc(NCCc3c[nH]c4ccccc34)c3ncn(C(C)C)c3n2)c1`, the viability, T/C runs as follows: (compound 0.1 µM) 98.8% [middle of 20 runs]; (compound 0.316 µM) 97.6% [middle of 19 runs]; (compound 1 µM) 92.7% [middle of 20 runs]; (compound 3.16 µM) 78.4% [middle of 20 runs]. Moreover, the IC50 (compound alone, run of 08/16/2022) is 5.52 µM [middle of 22 runs].
In the case of `CCc1c2c(nc3ccc(O)cc13)-c1cc3c(c(=O)n1C2)COC(=O)[C@]3(O)CC`, the viability, T/C was 90.5% and 88.5% and 79.2% (compound 0.000949 µM); 69% and 69.4% and 60.1% (compound 0.003 µM); 46% and 36.1% and 40.2% (compound 0.00949 µM); 45.3% and 36.5% and 41.5% (compound 0.03 µM); 28.9% and 21.7% and 21.8% (compound 0.0949 µM); 12.1% and 8% and 9.04% (compound 0.3 µM). Also, the IC50 (curve of compound) was 0.013 µM and 0.00738 µM and 0.00751 µM.
For the compound `CC(CO)NC(=O)c1cc(-c2ccc(Cl)cc2)nn(-c2cnn(C)c2)c1=O` (stereo not given), the viability, T/C (compound 0.1 µM) was 107% [middle of 20 runs]; the viability, T/C (compound 0.316 µM) is 108% [middle of 21 runs]; the viability, T/C (compound 1 µM) was 114% [middle of 21 runs]; the viability, T/C (compound 3.16 µM) is 103% [middle of 19 runs]; the viability, T/C (compound 10 µM) was 98.4% [middle of 19 runs]. Moreover, the IC50 (compound alone, run of 08/08/2022) was greater than 10 µM.
For the compound `CC1COCCN1c1cc(C2(S(C)(=N)=O)CC2)nc(-c2ccnc3[nH]ccc23)n1` (stereo not given), the viability, T/C runs as follows: (compound 0.0316 µM) 101% and 102% and 99.5%; (compound 0.1 µM) 101% (2×) and 99.1%; (compound 0.316 µM) 104% and 102% and 96.8%; (compound 1 µM) 100% and 97.1% and 98%; (compound 3.16 µM) 89.4% and 71.8% and 75.2%; (compound 10 µM) 46.7% and 37% and 41%. Moreover, the IC50 (curve of compound) was 9.16 µM and 6.5 µM and 7.4 µM.
Consider `CCN(c1cc(-c2ccc(CN3CCOCC3)cc2)cc(C(=O)NCc2c(C)cc(C)[nH]c2=O)c1C)C1CCOCC1` + CC(CO)NC(=O)c1cc(-c2ccc(Cl)cc2)nn(-c2cnn(C)c2)c1=O, for which the IC50 by setting is: under setting [1], greater than 3 µM; under setting [2], greater than 3 µM; under setting [3], greater than 3 µM; under setting [4], greater than 3 µM; under setting [5], greater than 3 µM. Further, the viability, T/C is, setting by setting: under setting [6], 114%; under setting [7], 111%; under setting [8], 111%; under setting [9], 110%; (second compound 0.1 µM, first compound 0.949 µM) 106%; (second compound 0.1 µM, first compound 3 µM) 109%. Moreover, the viability, T/C was 113% under setting [10]; 117% under setting [11]; 114% under setting [12]; 107% under setting [13]; 111% (second compound 0.316 µM, first compound 0.949 µM); 110% (second compound 0.316 µM, first compound 3 µM). Also, the viability, T/C under setting [14] was 116%; the viability, T/C under setting [15] was 118%; the viability, T/C under setting [16] is 119%; the viability, T/C under setting [17] was 115%; the viability, T/C (second compound 1 µM, first compound 0.949 µM) is 113%; the viability, T/C (second compound 1 µM, first compound 3 µM) was 117%. The viability, T/C under setting [18] was 108%; the viability, T/C under setting [19] is 113%; the viability, T/C under setting [20] was 107%; the viability, T/C under setting [21] was 98.8%; the viability, T/C (second compound 3.16 µM, first compound 0.949 µM) was 91.8%; the viability, T/C (second compound 3.16 µM, first compound 3 µM) was 97.8%. Further, the viability, T/C under setting [22] was 102%; the viability, T/C under setting [23] was 106%; the viability, T/C under setting [24] is 99%; the viability, T/C under setting [25] is 97.7%; the viability, T/C (second compound 10 µM, first compound 0.949 µM) is 98.1%; the viability, T/C (second compound 10 µM, first compound 3 µM) was 99.9%.

The IC50 is the concentration needed to halve the response being measured. By viability, T/C is commonly meant the result in the treated group divided by that in the control group, in per cent.
